Measurements from patent US6465647B1, “Oxygen, sulfur and nitrogen substituted cyclohexene and cyclohexane derivatives having retinoid-like biological activity” (Allergan, Inc., priority 1999, dated 2002).

Each compound was assayed on ornithine decarboxylase (ODC) (assay: Ornithine decarboxylase (ODC) assay: inhibition of TPA induction of ODC activity). Settings: concentration of the test compound which causes 60% inhibition in the ODC assay (TPA-induced ODC activity).
Type: biochemical
From the text: A classic measure of retinoic acid activity involves measuring the effects of retinoic acid on ornithine decarboxylase. The original work on the correlation between retinoic acid and a decrease in cell proliferation was done by Verma & Boutwell, Cancer Research, 1977, 37, 2196-2201. That reference discloses that ornithine decarboxylase (ODC) activity increased precedent to polyamine biosynthesis. It has been established elsewhere that increases in polyamine synthesis can be correlated or associated with cellular proliferation. Thus, if ODC activity could be inhibited, cell hyperproliferation could be modulated. Although all cases for ODC activity increases are unknown, it is known that 12-0-tetradecanoylphorbol-13-acetate (TPA) induces ODC activity. Retinoic acid inhibits this induction of ODC activity by TPA. […] “IC60” is that concentration of the test compound which causes 60% inhibition in the ODC assay. By analogy, “IC80”, for example, is that concentration of the test compound which causes 80% inhibition in the ODC assay.
Table 1 discloses the activity of certain exemplary compounds of the invention in the above-described oinithine decarboxylase (ODC) assay.

Row | SMILES | IC60 [nM]
1 | CCOC(=O)c1ccc(C#C/C=C/C2=C(C)CCCC2OC(C)=O)cc1 (single isomer, unassigned) [Compound 3a, Ethyl (−)-(E)-4-(4-(6-Acetyloxy-2-methylcyclohex-1-enyl)but-3-en-1-ynyl)benzoate] | 0.52
2 | CCOC(=O)c1ccc(C#C/C=C/C2=C(C)CCCC2OC(=O)C(C)(C)C)cc1 (single isomer, unassigned) [Compound 6a, Ethyl (−)-(E)-4-(4-(6-(2,2-Dimethylpropanoyl)oxy-2-methylcyclohex-1-enyl)but-3-ene-1-ynyl)benzoate] | 5.1
3 | CCOC(=O)c1ccc(C#C/C=C/C2=C(C)CCCC2OC(=O)C(C)(C)C)cc1 (single isomer, unassigned) [Compound 6b, Ethyl (+)-(E)-4-(4-(6-(2,2-Dimethylpropanoyl)oxy-2-methylcyclohex-1-enyl)but-3-ene-1-ynyl)benzoate] | 124
4 | CCOC(=O)c1ccc(C#C/C=C/C2=C(C)CCCC2OC(=O)C(C)C)cc1 (stereo not drawn) [Compound 5b, Ethyl (+)-(E)-4-(4-(6-iso-Butyryloxy-2-methyicyclohex-1-enyl)but-3-ene-1-ynyl)benzoate] | 234
5 | CCOC(=O)c1ccc(C#C/C=C/C2=C(C)CCCC2OC(=O)c2ccccc2)cc1 (stereo not drawn) [Compound 7a, Ethyl (−)-(E)-4-(4-(6-Benzoyloxy-2-methylcyclohex-1-enyl)but-3-ene-1-ynyl)benzoate] | 8.6
6 | CCOC(=O)c1ccc(C#CC=CC2=C(C)CCCC2=NOCc2ccccc2)cc1 [Compound 11] | 10.3

Continued, values first:

Row | IC60 [nM] | SMILES
7 | 4.3 | CCOC(=O)c1ccc(C#C/C=C/C2=C(C)CCCC2OC(C)=O)cc1 (single isomer, unassigned) [Compound 3b, Ethyl (+)-(E)-4-(4-(6-Acetyloxy-2-methylcyclohex-1-enyl)but3-en-1-ynyl)benzoate]
8 | 20.9 | CCOC(=O)c1ccc(C#C/C=C/C2=C(C)CCCC2OC(=O)CC)cc1 (stereo not drawn) [Compound 4a, Ethyl (−)-(E)-4-(4-(6-Propionyloxy-2-methylcyclohex-1-enyl)but-3-en-1-ynyl)benzoate]
9 | 2.4 | CCOC(=O)c1ccc(C#CC=CC2=C(C)CCCC2=NOC)cc1 [Compound 10]
10 | 7.8 | CCOC(=O)C=C1CCCC(C)=C1C=CC#Cc1ccc(C(=O)OCC)cc1 [Compound 12, Ethyl 4-(4-(6-Ethoxycarbonylmethylene-2-methylcyclohex-1-enyl)but-3-en-1-ynyl)benzoate]

Same assay, conditions: concentration of the test compound which causes 60% inhibition in the ODC assay (TPA-induced ODC activity); listed as Sa

Row | IC60 [nM] | SMILES
11 | 15.7 | CCOC(=O)c1ccc(C#C/C=C/C2=C(C)CCCC2OC(=O)C(C)C)cc1 (stereo not drawn) [Compound 5a, Ethyl (−)-(E)-4-(4-(6-iso-Butyryloxy-2-methylcyclohex-1-enyl)but-3-ene-1-ynyl)benzoate]
